Assay results taken from ChEMBL document CHEMBL3739366, “Discovery of HTL6641, a dual orexin receptor antagonist with differentiated pharmacodynamic properties” (Medchemcomm, 2015).
The source made the active and inactive calls. The rule behind the calls is not given here.

Experiments:
Orexin receptor type 2 = biological target: T1, Orexin receptor type 2 (Homo sapiens, UniProt O43614); experiment: Displacement of [3H]EMPA from human orexin receptor-2 expressed in HEK293 cells after 90 mins by scintillation counting; type: cell-based
T1 sequence (O43614 whole entry): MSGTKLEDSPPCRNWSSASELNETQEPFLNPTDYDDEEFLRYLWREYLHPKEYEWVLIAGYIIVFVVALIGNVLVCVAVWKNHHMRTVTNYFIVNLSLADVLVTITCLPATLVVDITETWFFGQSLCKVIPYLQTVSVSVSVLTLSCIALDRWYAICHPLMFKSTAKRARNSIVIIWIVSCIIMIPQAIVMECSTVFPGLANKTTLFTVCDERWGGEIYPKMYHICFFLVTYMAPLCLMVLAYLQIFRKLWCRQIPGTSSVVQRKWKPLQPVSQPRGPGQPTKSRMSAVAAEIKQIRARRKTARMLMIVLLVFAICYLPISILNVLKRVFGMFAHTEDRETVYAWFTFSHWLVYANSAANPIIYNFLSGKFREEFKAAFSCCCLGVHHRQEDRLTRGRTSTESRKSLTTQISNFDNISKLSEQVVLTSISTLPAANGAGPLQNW

[1] = Half life in rat liver microsomes; type: ADME
[2] = Mean residence time in Sprague-Dawley rat; type: ADME, organism-based; conditions: in vivo
[3] = Mean residence time in beagle dog; type: ADME, organism-based, Canis lupus familiaris; conditions: in vivo
[4] = Clearance in Sprague-Dawley rat at 1 mg/kg, iv; type: ADME, organism-based; conditions: in vivo
[5] = Volume of distribution at steady state in beagle dog at 1 mg/kg, iv; type: ADME, organism-based, Canis lupus familiaris; conditions: in vivo, read-out: Vdss
[6] = Ratio of drug level in cerebrospinal fluid to brain in Sprague-Dawley rat at 1 mg/kg, iv after 0.5 hrs; type: ADME, organism-based, CSF/Brain; conditions: in vivo
[7] = Half life in Sprague-Dawley rat at 2 mg/kg, po; type: ADME, organism-based; conditions: in vivo
[8] = Half life in beagle dog at 1 mg/kg, po; type: ADME, organism-based, Canis lupus familiaris; conditions: in vivo
Rattus norvegicus [9] = experiment: AUC (infinity) in Sprague-Dawley rat at 2 mg/kg, po; type: ADME, organism-based; design: dose 2 mg/kg, route oral, time infinity; conditions: in vivo
[10] = Tmax in beagle dog at 1 mg/kg, po; type: ADME, organism-based, Canis lupus familiaris; conditions: in vivo
[11] = Oral bioavailability in Sprague-Dawley rat at 2 mg/kg; type: ADME, organism-based; conditions: in vivo
[12] = Oral bioavailability in beagle dog at 1 mg/kg; type: ADME, organism-based, Canis lupus familiaris; conditions: in vivo
Cytochrome P450 2C19 = Cytochrome P450 2C19 (Homo sapiens, UniProt P33261); experiment: Inhibition of CYP2C19 (unknown origin); type: ADME
Cytochrome P450 2D6 = Cytochrome P450 2D6 (Homo sapiens, UniProt P10635); experiment: Inhibition of CYP2D6 (unknown origin); type: ADME
Cytochrome P450 3A4 = Cytochrome P450 3A4 (Homo sapiens, UniProt P08684); experiment: Inhibition of CYP3A4 (unknown origin); type: ADME
[13] = biological target: Voltage-gated inwardly rectifying potassium channel KCNH2 (Homo sapiens, UniProt Q12809); experiment: Inhibition of human ERG
[14] = Efflux ratio of the compound in human Caco2 cells; type: ADME, cell-based; conditions: Caco-2
[15] = Plasma protein binding in dog; type: ADME, cell-free, Canis lupus familiaris; conditions: read-out: PPB (converted)
[16] = Plasma protein binding in mouse; type: ADME, cell-free; conditions: read-out: PPB (converted)
[17] = Half life in rat hepatocytes; type: ADME, cell-based, Hepatocyte
[18] = Half life in dog hepatocytes; type: ADME, cell-based, Canis lupus familiaris, Hepatocyte
[19] = Half life in cynomolgus monkey hepatocytes; type: ADME, cell-based, Macaca fascicularis, Hepatocyte
[20] = Half life in human hepatocytes; type: ADME, cell-based, Hepatocyte
Salmonella typhimurium [21] = experiment: Genotoxicity in Salmonella typhimurium by Ames test in presence of S9 fraction; type: toxicity, organism-based; conditions: salmonella enterica subsp. enterica serovar typhimurium
Salmonella typhimurium [22] = experiment: Genotoxicity in Salmonella typhimurium by Ames test in absence of S9 fraction; type: toxicity, organism-based; conditions: salmonella enterica subsp. enterica serovar typhimurium
Rattus norvegicus [23] = experiment: Ex-vivo receptor occupancy of orexin receptor-2 Sprague-Dawley rat frontal cortex using [3H]EMPA at 1 mg/kg, po after 1 hr by autoradiography relative to control; type: functional
[24] = Plasma concentration in Sprague-Dawley rat plasma at 1 mg/kg, po after 1 hr; type: ADME, organism-based
Rattus norvegicus [25] = experiment: Antiinsomnic activity in CD1 rat assessed as hypnotic effect at 3 to 10 mg/kg, po administered at circadian time 18 hrs measured after 2 to 3 hrs; type: functional, organism-based
Rattus norvegicus [26] = experiment: Antiinsomnic activity in CD1 rat assessed as increase of promoted sleep at 3 to 10 mg/kg, po administered at circadian time 18 hrs measured after 3 hrs; type: functional
Rattus norvegicus [27] = experiment: Antiinsomnic activity in CD1 rat assessed as reduction of time spent awake at 3 to 10 mg/kg, po administered at circadian time 18 hrs measured after 3 hrs; type: functional; design: scale not given: the % may be the effect or the level left
Rattus norvegicus [28] = experiment: Antiinsomnic activity in CD1 rat assessed as increase of REM sleep at 3 mg/kg, po administered at circadian time 18 hrs measured after 3 hrs; type: functional
Rattus norvegicus [29] = experiment: Antiinsomnic activity in CD1 rat assessed as increase of REM sleep at 10 mg/kg, po administered at circadian time 18 hrs measured after 3 hrs; type: functional
Rattus norvegicus [30] = experiment: Antiinsomnic activity in CD1 rat assessed as increase of NREM sleep at 3 mg/kg, po administered at circadian time 18 hrs measured after 3 hrs; type: functional
Rattus norvegicus [31] = experiment: Antiinsomnic activity in CD1 rat assessed as increase of NREM sleep at 10 mg/kg, po administered at circadian time 18 hrs measured after 3 hrs; type: functional
Rattus norvegicus [32] = experiment: Antiinsomnic activity in CD1 rat assessed as reduction of time taken for latency to first REM episode at 10 mg/kg, po administered at 18 hrs after circadian time; type: functional; design: scale not given: the % may be the effect or the level left
[33] = biological target: T2, Orexin/Hypocretin receptor type 1 (Homo sapiens) (UniProt O43613)
T2 sequence (whole entry): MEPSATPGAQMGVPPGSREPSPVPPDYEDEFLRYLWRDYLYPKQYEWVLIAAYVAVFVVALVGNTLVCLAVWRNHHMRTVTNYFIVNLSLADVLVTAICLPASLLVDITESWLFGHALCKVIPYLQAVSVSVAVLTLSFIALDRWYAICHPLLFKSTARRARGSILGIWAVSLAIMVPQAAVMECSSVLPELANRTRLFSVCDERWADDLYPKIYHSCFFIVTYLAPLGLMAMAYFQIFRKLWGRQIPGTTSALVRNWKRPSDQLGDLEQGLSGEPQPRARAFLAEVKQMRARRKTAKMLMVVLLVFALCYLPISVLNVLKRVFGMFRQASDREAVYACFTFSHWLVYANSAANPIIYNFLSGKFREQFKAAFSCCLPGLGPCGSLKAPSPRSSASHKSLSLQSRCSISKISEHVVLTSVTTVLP

[34] = biological target: T3, Orexin receptor type 2 (Homo sapiens) (UniProt O43614)
T3 sequence (whole entry): T1 sequence (O43614 whole entry)
Description: Binding affinity to orexin receptor-2 (unknown origin) assessed as dissociation half-life by SPR assay

[35] = biological target: T3, Orexin receptor type 2 (Homo sapiens); remark: listed apart in the source
Description: Binding affinity to orexin receptor-2 (unknown origin) assessed as dissociation half-life by Motulsky-Mahan radioligand binding assay

[36] = biological target: T2, Orexin/Hypocretin receptor type 1 (Homo sapiens); conditions: CHO
Description: Antagonist activity at human orexin receptor-1 expressed in CHO cells assessed as orexin-A-induced ERK1/2 phosphorylation after 2 hrs by fluorescence assay

[37] = biological target: T3, Orexin receptor type 2 (Homo sapiens); conditions: CHO
Description: Antagonist activity at human orexin receptor-2 expressed in CHO cells assessed as orexin-A-induced ERK1/2 phosphorylation after 2 hrs by fluorescence assay

Cytochrome P450 2C19, sequence (P33261 whole entry): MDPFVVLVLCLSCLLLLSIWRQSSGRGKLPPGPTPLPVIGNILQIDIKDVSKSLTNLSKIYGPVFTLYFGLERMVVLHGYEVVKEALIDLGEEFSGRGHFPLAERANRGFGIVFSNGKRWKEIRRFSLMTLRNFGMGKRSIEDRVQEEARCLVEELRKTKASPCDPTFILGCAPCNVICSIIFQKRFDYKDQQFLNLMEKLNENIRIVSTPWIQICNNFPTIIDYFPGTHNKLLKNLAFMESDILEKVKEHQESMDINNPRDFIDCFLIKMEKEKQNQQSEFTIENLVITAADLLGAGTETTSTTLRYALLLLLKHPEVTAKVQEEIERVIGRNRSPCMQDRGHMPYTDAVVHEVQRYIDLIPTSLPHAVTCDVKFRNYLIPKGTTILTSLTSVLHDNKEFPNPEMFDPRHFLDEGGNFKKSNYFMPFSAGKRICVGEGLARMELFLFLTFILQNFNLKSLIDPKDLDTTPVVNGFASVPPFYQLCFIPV
Cytochrome P450 3A4, sequence (P08684 whole entry): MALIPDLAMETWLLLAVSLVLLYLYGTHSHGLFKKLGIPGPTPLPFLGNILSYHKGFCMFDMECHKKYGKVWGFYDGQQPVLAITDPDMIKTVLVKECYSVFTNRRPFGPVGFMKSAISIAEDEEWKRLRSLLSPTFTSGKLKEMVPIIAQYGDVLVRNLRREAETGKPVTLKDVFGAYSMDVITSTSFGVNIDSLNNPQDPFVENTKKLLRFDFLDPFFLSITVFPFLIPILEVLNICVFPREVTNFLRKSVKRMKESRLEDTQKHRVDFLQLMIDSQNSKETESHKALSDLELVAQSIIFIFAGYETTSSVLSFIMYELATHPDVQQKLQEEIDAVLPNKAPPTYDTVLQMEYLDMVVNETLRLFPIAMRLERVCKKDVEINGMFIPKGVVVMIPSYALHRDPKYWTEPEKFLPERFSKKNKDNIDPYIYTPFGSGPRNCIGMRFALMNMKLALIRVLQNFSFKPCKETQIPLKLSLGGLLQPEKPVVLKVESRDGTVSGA
Voltage-gated inwardly rectifying potassium channel KCNH2, sequence (Q12809 whole entry): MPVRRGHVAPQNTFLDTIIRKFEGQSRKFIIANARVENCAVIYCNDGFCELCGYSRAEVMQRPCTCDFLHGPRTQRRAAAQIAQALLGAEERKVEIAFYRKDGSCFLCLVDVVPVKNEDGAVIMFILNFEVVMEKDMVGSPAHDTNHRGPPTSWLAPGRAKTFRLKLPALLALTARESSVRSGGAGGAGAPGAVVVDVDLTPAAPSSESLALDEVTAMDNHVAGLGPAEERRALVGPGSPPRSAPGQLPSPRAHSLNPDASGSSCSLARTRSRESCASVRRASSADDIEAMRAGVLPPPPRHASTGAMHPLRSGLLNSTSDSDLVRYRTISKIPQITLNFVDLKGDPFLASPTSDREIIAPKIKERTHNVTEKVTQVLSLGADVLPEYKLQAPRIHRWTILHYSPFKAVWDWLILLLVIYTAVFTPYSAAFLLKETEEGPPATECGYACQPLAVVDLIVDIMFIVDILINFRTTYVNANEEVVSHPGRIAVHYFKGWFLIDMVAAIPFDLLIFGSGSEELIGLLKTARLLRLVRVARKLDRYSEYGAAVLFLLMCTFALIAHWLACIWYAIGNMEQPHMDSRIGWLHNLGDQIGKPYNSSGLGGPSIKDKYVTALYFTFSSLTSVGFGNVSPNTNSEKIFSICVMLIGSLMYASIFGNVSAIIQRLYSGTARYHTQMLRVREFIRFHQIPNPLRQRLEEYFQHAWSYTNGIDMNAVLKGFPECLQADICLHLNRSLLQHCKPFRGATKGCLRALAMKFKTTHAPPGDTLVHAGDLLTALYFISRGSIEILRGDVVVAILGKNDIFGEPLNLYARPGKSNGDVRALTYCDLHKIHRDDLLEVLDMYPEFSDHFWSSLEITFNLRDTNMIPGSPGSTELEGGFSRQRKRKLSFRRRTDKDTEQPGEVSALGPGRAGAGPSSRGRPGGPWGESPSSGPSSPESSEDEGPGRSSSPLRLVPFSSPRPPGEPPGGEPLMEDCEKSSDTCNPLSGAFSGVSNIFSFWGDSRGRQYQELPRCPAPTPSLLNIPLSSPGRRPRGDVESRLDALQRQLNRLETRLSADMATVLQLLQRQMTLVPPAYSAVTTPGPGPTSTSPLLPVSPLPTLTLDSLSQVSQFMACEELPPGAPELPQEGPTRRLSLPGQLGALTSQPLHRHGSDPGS
Cytochrome P450 2D6, sequence (P10635 whole entry): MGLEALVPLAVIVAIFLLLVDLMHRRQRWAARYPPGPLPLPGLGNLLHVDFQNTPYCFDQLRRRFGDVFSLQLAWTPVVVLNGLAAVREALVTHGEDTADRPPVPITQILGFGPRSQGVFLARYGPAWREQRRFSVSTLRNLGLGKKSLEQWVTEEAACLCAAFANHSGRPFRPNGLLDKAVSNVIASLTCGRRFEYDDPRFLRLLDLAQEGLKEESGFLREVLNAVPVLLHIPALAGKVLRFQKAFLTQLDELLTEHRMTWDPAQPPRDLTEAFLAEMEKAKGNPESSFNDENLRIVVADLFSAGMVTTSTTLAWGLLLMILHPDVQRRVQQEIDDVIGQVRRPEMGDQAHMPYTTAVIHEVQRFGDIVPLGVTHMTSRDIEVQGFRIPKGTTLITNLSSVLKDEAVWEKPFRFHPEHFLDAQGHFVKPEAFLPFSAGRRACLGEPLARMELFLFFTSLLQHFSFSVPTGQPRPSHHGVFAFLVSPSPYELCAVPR

Ki (Orexin receptor type 2): 0.00251 µM
half-life [1]: 0.383 h
MRT [2]: 1.9 h
MRT [3]: 4 h
clearance [4]: 18 mL/min/kg
Vd [5]: 3 L/kg
Ratio [6]: 0.01
half-life [7]: 1.8 h
half-life [8]: 7.1 h
AUC (Rattus norvegicus [9]): 1220 ng·h/mL
Tmax [10]: 0.4 h
bioavailability [11]: 66%
bioavailability [12]: 70%
IC50 (Cytochrome P450 2C19): > 10 µM
IC50 (Cytochrome P450 2D6): > 10 µM
IC50 (Cytochrome P450 3A4): > 10 µM
efflux ratio [14]: 0.7
fraction unbound [15]: 0.019
fraction unbound [16]: 0.008
half-life [17]: > 1.83 h
half-life [18]: > 1.83 h
half-life [19]: > 4.17 h
half-life [20]: > 4.17 h
concentration at 1 h [24]: 72 ng/mL
T1/2 [33]: 48 s
T1/2 [34]: 4.2 min
T1/2 [35]: 7.6 min
pKb [36]: 6.6
pKb [37]: 7.3
Compound: COc1cc(N2C(=O)N(Cc3c(F)cc(F)cc3F)c3ncccc3S2(=O)=O)cnc1OC
IC50 [13]: > 10 µM
Activity (Salmonella typhimurium [21]): Non-toxic
Activity (Salmonella typhimurium [22]): Non-toxic
Occ (Rattus norvegicus [23]): 57%
Activity (Rattus norvegicus [25]): Active
Activity (Rattus norvegicus [26]): 17.4%
Activity (Rattus norvegicus [27]): 18.5%
Activity (Rattus norvegicus [28]): 70.6%
Activity (Rattus norvegicus [29]): 69.6%
Activity (Rattus norvegicus [30]): 28.8%
Activity (Rattus norvegicus [31]): 30.7%
Activity (Rattus norvegicus [32]): 35%
